# Legend:
# Stability in solution = type: physicochemical; conditions: room temperature
# [1] = tested on: L. donovani promastigotes; assay: In vitro killing of L. donovani promastigotes; type: cell-based, Leishmania donovani (strain LV 82); conditions: Leishmania donovani, 72 h, read-out: L. donovani promastigotes IC50
# [2] = In vitro cytotoxicity, sulforhodamine B; type: cell-based; conditions: human
# [3] = tested on: human farnesyl diphosphate synthase (FPPS); conditions: cited from earlier work
# [4] = tested on: trypanosomal farnesyl diphosphate synthase (FPPS); conditions: cited from earlier work
# [5] = tested on: L. donovani promastigotes; conditions: isolated from other plant species; cited from earlier work
# [6] = cited from earlier work
# [7] = HT-29 colorectal carcinoma cells
Structure (SMILES),IC50 [1],"IC50 at 72 h [2, 7]",further results
"Cc1ccc2c3c1CCCC(C)(C)C3C(=O)C(C(C)C)=C2 (racemic) [Compound 4, (±)-11-dehydroxymicrostegiol]",–,–,stability in solution (Stability in solution): stable in solution at room temperature
"COCC(=O)[C@H]1C(C)(C)CCC[C@]1(C)C1=C(O)C(=O)C(C(C)C)=CC1=O [Compound 2, (1′S,2′S)-6-hydroxy-4-isopropyl-2′-(2-methoxyacetyl)-1′,3′,3′-trimethyl-[1,1′-bi(cyclohexane)]-3,6-diene-2,5-dione]",2.5 µg/mL,1.6 µg/mL,–
"CC(C)C1=CC2=CC(=O)[C@H]3C(C)(C)CCC[C@]3(C)C2=C(O)C1=O [Compound 10, taxodione]",0.5 µg/mL,0.8 µg/mL,inhibition of human farnesyl diphosphate synthase (FPPS) [3]: inhibitor; inhibition of trypanosomal farnesyl diphosphate synthase (FPPS) [4]: inhibitor; antileishmanial activity against L. donovani promastigotes in vitro [5]: potent antileishmanial agent
"CC(C)c1cc2c(cc1O)[C@@]1(C)CCCC(C)(C)[C@@H]1CC2 [Compound 12, ferruginol]",13.1 µg/mL,11.3 µg/mL,reported antioxidant and gastroprotective activity [6]: bioavailable antioxidant and gastroprotective agent
"CC(C)c1cc2c(cc1O)[C@@]1(C)CCCC(C)(C)[C@@H]1[C@@H](O)C2=O [Compound 14, 6α-hydroxysugiol]",7.8 µg/mL,11.4 µg/mL,–
"CC(C)c1cc2c(c(O)c1O)[C@@]1(C)CCCC(C)(C)C1=C(O)C2=O [Compound 16, 14-deoxycoleon U]",> 20 µg/mL,–,IC50 at 72 h [2]: 4.4 µg/mL

# Reference: article PMC4831050 (Journal of natural products, 2016)
